Data on 1 compound can be found in patent US9126945B2, “N-(3-carbamoylphenly)-1H-pyrazole-5-carboxamide derivatives and the use thereof for controlling animal pests” (BAYER INTELLECTUAL PROPERTY GMBH, priority 2011, dated 2015).

In one assay the test system is Spodoptera frugiperda. In words: Spodoptera frugiperda test (SPODFR spray treatment), maize leaf discs. Type of assay: in vivo. From the text:
Spodoptera frugiperda Test (SPODFR Spray Treatment)

The next assay concerns Myzus persicae. Kind of assay: Myzus test (MYZUPE spray treatment). Type of assay: in vivo. As to the method:
Myzus test (Myzupe spray treatment)
After 6 days, the efficacy in % is determined.
Myzus Test (MYZUPE Spray Treatment)

For a further assay, the system named is Lucilia cuprina larvae. Kind of assay: Lucilia cuprina test (LUCICU). Type of assay: in vivo. The note with it: 100 ppm; after 2 days. Here is the method: Lucilia cuprina Test (LUCICU)
Solvent: dimethyl sulphoxide
Vessels containing horse meat treated with the active compound preparation of the desired concentration are populated with about 20 Lucilia cuprina larvae.
After 2 days, the kill in % is determined.

The subject of assay [1] is Boophilus microplus females of the SP-resistant Parkhurst strain. Kind of assay: Boophilus microplus test (DIP). Type of assay: in vivo. As to conditions: 100 ppm. In a few lines:
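Engorged adult females (8–10 per tube) immersed in compound diluted in water from DMSO solution, concentration in ppm. Kept on filter discs in a climatized room; efficacy from fertile egg laying, assessed after 7 days, 100% meaning no fertile eggs laid.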

The subject of the next assay is Phaedon cochleariae. Kind of assay: Phaedon test (PHAECO spray treatment), Chinese cabbage leaf discs.
[2] abbreviates: application rate 500 g/ha, after 7 days.
[3] abbreviates: Phaedon cochleariae, in Brassica rapa, foliar, 168 h, read-out: % Activity dat.

SMILES strings stand for the structures.

For `Cn1nc(C(F)(F)C(F)(F)F)c(C(F)(F)F)c1C(=O)Nc1ccc(Cl)c(C(=O)NC2(C#N)CC2)c1` [Example 10], the inhibition at 100 g/ha turned out to be 100% in the assay on Spodoptera frugiperda (Spodoptera frugiperda, foliar, 168 h, SPODFR, 100 g/ha, 7 dat); 100% in the assay with Myzus persicae (Myzus persicae, 144 h, MYZUPE, 100 g/ha, 6 dat); 100% in the assay on Phaedon cochleariae (setting [3]). Moreover, the efficacy in % with Spodoptera frugiperda (setting [2]) came out at 100%; in the assay with Myzus persicae (application rate 500 g/ha, after 6 days), 100%; in the assay on Phaedon cochleariae (setting [2]), 100%. The inhibition at 20 g/ha with Myzus persicae (Myzus persicae, 144 h, MYZUPE, 20 g/ha, 6 dat) was 80%; with Phaedon cochleariae (setting [3]), 100%. Also, the inhibition at 500 g/ha in the assay with Myzus persicae (Myzus persicae, 144 h, MYZUPE, 500 g/ha, 6 dat) worked out at 100%. For the same compound, the “kill in % (efficacy)” value in the assay with Lucilia cuprina larvae was determined as 100%. In addition, in assay [1] (after 7 days), the “efficacy in % (laying of fertile eggs)” value is reported as 100%. This compound yielded an inhibition at 100 ppm in assay [1] (Rhipicephalus microplus, 168 h, BOOPMI DIP, 7 dat) of 100%.
